Measurements taken from paper PMC10993450, “New benzimidazole derivative compounds with in vitro fasciolicidal properties” (Parasites & Vectors, 2024).
“And” between values parts separate entries of the source, which are not always exact repeats. Equal entries are not always repeated.

tested on: Fasciola hepatica eggs (ABZ-susceptible isolate); experiment: Egg hatch test (EHT), ABZ-susceptible isolates; format: cell-based; conditions: 10 µM; ABZ-susceptible isolate; mean ± SEM
Procedure: Eggs were recovered from gallbladders of cattle naturally infected with F. hepatica at the municipal slaughterhouse of León (Spain). For this, the bile of the gallbladders was filtered through sieves of different diameter size pores (500, 150, and 20 µm) using pressurized tap water. Eggs retained on the 20 µm pore size sieve were collected and stored at 4 °C in darkness until required within a maximum period of 2 months.
The susceptibility of the isolates to ABZ was confirmed by the egg hatch test (EHT) using an ABZ discriminant dose (DD) of 0.5 µM [23]. The technique is described in more detail below.
The in vitro anthelmintic activity of a total of 70 BZDs was initially tested on F. hepatica eggs recovered from gallbladders of cattle naturally infected with ABZ-susceptible isolates. The first screening was performed using a fixed concentration of 50 µM. […] Therefore, only BZDs with ovicidal activities over 80% progressed to the next assays at 10 µM. […] At this last concentration, the ovicidal effect of ABZ, ABZSO, and OXF was also evaluated.
The in vitro EHT described in the current study was based on previous studies. Briefly, 100–120 eggs were incubated in 990 µL of water and 10 μL of each working solution at 25 °C in the dark for a period of 12 h. After incubation, eggs were gently washed with tap water three times to facilitate compound removal and kept in darkness at 25 °C for 14 days. After this period, eggs were exposed to light for 2 h to stimulate the hatching of eggs. Then, hatched and unhatched eggs were evaluated and counted using an optical microscope. The term “hatched eggs” includes both hatched and embryonated eggs. Negative control eggs were incubated with 10 μL of DMSO in 990 μL of water, reaching a maximum DMSO concentration of 1% (v/v), while ABZ at 0.5 µM was used as positive control. Each compound at a specific concentration was tested in triplicate in the same EHT and repeated at least two different days.
With the aim to characterize the susceptibility of isolates from naturally infected cattle, the drug used in the EHT was ABZ, tested at a discriminant dose of 0.5 μM. Drug susceptibility is assumed when the ovicidal activity is over 70%, resistance when is lower than 40%, and a suspicion of resistance when activity is between these values at 0.5 μM.
The efficacy of each compound and drug was calculated as its ovicidal activity following the formula below: Ovicidal activity%=100×%eggs hatched in negative control-%egg hatched after drug incubation/%egg hatched in control.

Row | SMILES | % Ovicidal activity
1 | Cc1ccc2[nH]c(-c3ccc(Cl)cc3)nc2c1 [BZD05] | around 50%
2 | COc1ccc(-c2nc3cc(OC)ccc3[nH]2)cc1 [BZD20] | 24.59 ± 05.71%

same assay, conditions: 50 µM; ABZ-susceptible isolate; mean ± SEM

Row | SMILES | % Ovicidal activity
3 | COc1ccc(-c2nc3ccccc3[nH]2)cc1 [BZD01] | 20.07 ± 9.32%
4 | Clc1ccc(-c2nc3ccccc3[nH]2)cc1 [BZD02] | 09.55 ± 5.68%
5 | Brc1ccc(-c2nc3ccccc3[nH]2)cc1 [BZD03] | 01.93 ± 1.11%
6 | Cc1ccc2[nH]c(-c3ccc(Cl)cc3)nc2c1 [BZD05] | 35.59 ± 9.00%
7 | Cc1ccc(C)c(-c2nc3cc(C)ccc3[nH]2)c1 [BZD06] | 02.26 ± 1.30% and 04.63 ± 2.27%
8 | COc1ccc(-c2nc3cc(C)ccc3[nH]2)cc1[N+](=O)[O-] [BZD07] | 07.13 ± 3.45%
9 | O=[N+]([O-])c1ccc(-c2nc3cc(Cl)ccc3[nH]2)cc1 [BZD10] | 23.55 ± 8.06%
10 | Cc1ccc(C)c(-c2nc3cc(Cl)ccc3[nH]2)c1 [BZD11] | 03.28 ± 1.45%
11 | COc1ccc(-c2nc3cc(Cl)ccc3[nH]2)cc1[N+](=O)[O-] [BZD12] | 00.55 ± 9.45%
12 | COc1ccc(-c2nc3cc(Cl)ccc3[nH]2)cc1N [BZD13] | 04.40 ± 1.38%
13 | COc1ccc(-c2nc3cc([N+](=O)[O-])ccc3[nH]2)cc1 [BZD14] | 15.55 ± 7.35%
14 | Cc1ccc(C)c(-c2nc3cc([N+](=O)[O-])ccc3[nH]2)c1 [BZD16] | 00.33 ± 0.33%
15 | COc1ccc(-c2nc3cc([N+](=O)[O-])ccc3[nH]2)cc1[N+](=O)[O-] [BZD17] | 00.00 ± 0.00%
16 | COc1ccc(-c2nc3cc(N)ccc3[nH]2)cc1 [BZD18] | 02.82 ± 1.42%
17 | COc1ccc(-c2nc3cc(NC(=O)c4ccccn4)ccc3[nH]2)cc1 [BZD19] | 13.61 ± 3.64%
18 | COc1ccc2[nH]c(-c3ccc(Cl)cc3)nc2c1 [BZD21] | 06.88 ± 6.88%
19 | COc1ccc2nc(-c3ccc(Br)cc3)[nH]c2c1 [BZD22] | 67.47 ± 5.64%
20 | COc1ccc(-c2nc3cc(C)c(C)cc3[nH]2)cc1 [BZD23] | 59.08 ± 3.79%

Row | SMILES | % Ovicidal activity
21 | COc1ccc(-c2nc3cc(Cl)c(Cl)cc3[nH]2)cc1 [BZD24] | 16.09 ± 6.50%
22 | Cc1ccc(S(=O)(=O)Nc2nc3cc(C)ccc3[nH]2)cc1 [BZD25] | 3.94 ± 1.37%
23 | Cc1ccc2[nH]c(NS(=O)(=O)c3ccc4ccccc4c3)nc2c1 [BZD26] | 2.23 ± 0.99%
24 | COc1ccc(CNc2nc3cc(C)ccc3[nH]2)c(OC)c1OC [BZD28] | 01.02 ± 0.62%
25 | Cc1ccc2[nH]c(NCc3ccc4ccccc4c3)nc2c1 [BZD29] | 04.65 ± 1.98%
26 | COc1ccc(CNc2nc3cc(Cl)ccc3[nH]2)cc1 [BZD33] | 05.52 ± 2.49%
27 | COc1cc(CNc2nc3cc(Cl)ccc3[nH]2)cc(OC)c1OC [BZD34] | 00.39 ± 0.38%
28 | Clc1ccc2[nH]c(NCc3ccco3)nc2c1 [BZD35] | 37.65 ± 13.55%
29 | COc1ccc2[nH]c(NCc3ccccc3)nc2c1 [BZD36] | 70.94 ± 2.32%
30 | COc1ccc(CNc2nc3cc(OC)ccc3[nH]2)cc1 [BZD37] | 08.66 ± 1.86%
31 | COc1ccc2[nH]c(NCc3cccs3)nc2c1 [BZD40] | 17.73 ± 5.12%
32 | COc1ccc(CNc2nc3cc(C)c(C)cc3[nH]2)cc1 [BZD41] | 05.76 ± 3.12%
33 | COc1cc(CNc2nc3cc(C)c(C)cc3[nH]2)cc(OC)c1OC [BZD42] | 10.73 ± 3.26%
34 | Clc1cc2nc(NCc3ccccc3)[nH]c2cc1Cl [BZD43] | 55.36 ± 3.12%
35 | COc1cc(CNc2nc3cc(Cl)c(Cl)cc3[nH]2)cc(OC)c1OC [BZD45] | 00.91 ± 0.61%
36 | COc1ccc(C(=O)Nc2nc3cc(C)ccc3[nH]2)cc1 [BZD48] | 09.72 ± 2.50%
37 | Cc1ccc2[nH]c(NC(=O)c3cc([N+](=O)[O-])ccc3Cl)nc2c1 [BZD50] | 07.62 ± 2.71%
38 | COc1cc(OC)cc(C(=O)Nc2nc3cc(C)ccc3[nH]2)c1 [BZD51] | 05.05 ± 2.51%
